Where two headings read alike, the source gives them in different places.
Assays:
[1] = test system: 60 cancer cell lines (NCI 60 cancer cell line series); test: NCI-DTP in vitro cancer screen, sulforhodamine B (SRB) growth inhibition, 48 hour exposure; assay type: cell-based, human; parameters: key to sensitivity class Ovarian OVCAR-8 CL6005 / sensitivity class Ovarian SK-OV-3 CL6011 / sensitivity class Prostate DU-145 CL11003 / sensitivity class NSCLC NCI-H522 CL1003 / sensitivity class Ovarian IGROV1 CL6010 / sensitivity class Ovarian OVCAR-4 CL6002 / sensitivity class Prostate PC-3(I) CL11001 / sensitivity class Renal A498 CL9013 / sensitivity class Renal SN12C CL9008: sensitivity class: 1 = Low, 2 = Medium, 3 = High
How it was run: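 Sixty NCI-DTP cancer lines plated at line-specific densities, dosed on day 1 in duplicate with 5 concentrations at ten-fold intervals. After 48 h exposure, cell mass read by SRB staining; GI50 (50% growth inhibition) taken from dose-response curves and expressed as -log GI50.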

[2] = test system: 60 cancer cell lines (NCI 60 cancer cell line series); details: cited from earlier work

O=c1[nH]cc(F)c(=O)[nH]1 [5-Fluorouracil]
classification of cell line as Low(1), Medium(2) or High(3) sensitivity to compound ([1]; Breast BT-549 (CL5013)): 1
classification of cell line as Low(1), Medium(2) or High(3) sensitivity to compound ([1]; Breast HS-578T CL5006): 1
classification of cell line as Low(1), Medium(2) or High(3) sensitivity to compound ([1]; Breast MCF7(I) (CL5001)): 3
classification of cell line as Low(1), Medium(2) or High(3) sensitivity to compound ([1]; Breast MCF7/ADRr (CL5002)): 2
classification of cell line as Low(1), Medium(2) or High(3) sensitivity to compound ([1]; Breast MDA-MB-231 CL5005): 1
classification of cell line as Low(1), Medium(2) or High(3) sensitivity to compound ([1]; Breast MDA-MB-435 (CL5011)): 2
classification of cell line as Low(1), Medium(2) or High(3) sensitivity to compound ([1]; Breast MDA-N CL5012): 2
classification of cell line as Low(1), Medium(2) or High(3) sensitivity to compound ([1]; Breast T-47D (CL5014)): 2
classification of cell line as Low(1), Medium(2) or High(3) sensitivity to compound ([1]; CNS SF-268 CL12014): 2
classification of cell line as Low(1), Medium(2) or High(3) sensitivity to compound ([1]; CNS SF-295 CL12015): 2
classification of cell line as Low(1), Medium(2) or High(3) sensitivity to compound ([1]; CNS SF-539 CL12016): 3
classification of cell line as Low(1), Medium(2) or High(3) sensitivity to compound ([1]; CNS SNB-19 (CL12002)): 1
classification of cell line as Low(1), Medium(2) or High(3) sensitivity to compound ([1]; CNS SNB-75(I) CL12005): 1
classification of cell line as Low(1), Medium(2) or High(3) sensitivity to compound ([1]; CNS U251(I) CL12009): 2
classification of cell line as Low(1), Medium(2) or High(3) sensitivity to compound ([1]; Colon COLO-250 CL4010): 2
classification of cell line as Low(1), Medium(2) or High(3) sensitivity to compound ([1]; Colon HCC-2998 (CL4002)): 3
classification of cell line as Low(1), Medium(2) or High(3) sensitivity to compound ([1]; Colon HCT-15 CL4015): 2
classification of cell line as Low(1), Medium(2) or High(3) sensitivity to compound ([1]; Colon HCT-116 (CL4003)): 3
classification of cell line as Low(1), Medium(2) or High(3) sensitivity to compound ([1]; Colon HT29(I) CL4001): 2
classification of cell line as Low(1), Medium(2) or High(3) sensitivity to compound ([1]; Colon KM12 (CL4017)): 2
classification of cell line as Low(1), Medium(2) or High(3) sensitivity to compound ([1]; Colon SW-620 (CL4009)): 2
classification of cell line as Low(1), Medium(2) or High(3) sensitivity to compound ([1]; Leukemia CCRF-CEM(I) (CL7003)): 2
classification of cell line as Low(1), Medium(2) or High(3) sensitivity to compound ([1]; Leukemia HL-60(I) (CL7008)): 2
classification of cell line as Low(1), Medium(2) or High(3) sensitivity to compound ([1]; Leukemia K562(I) CL7005): 2
classification of cell line as Low(1), Medium(2) or High(3) sensitivity to compound ([1]; Leukemia MOLT-4 (CL7006)): 2
classification of cell line as Low(1), Medium(2) or High(3) sensitivity to compound ([1]; Leukemia RPMI-8226(I) (CL7010)): 3
classification of cell line as Low(1), Medium(2) or High(3) sensitivity to compound ([1]; Leukemia SR CL7019): 2
classification of cell line as Low(1), Medium(2) or High(3) sensitivity to compound ([1]; Melanoma LOX IMVI CL10001): 2
classification of cell line as Low(1), Medium(2) or High(3) sensitivity to compound ([1]; Melanoma M14 (CL10014)): 2
classification of cell line as Low(1), Medium(2) or High(3) sensitivity to compound ([1]; Melanoma MALME-3M CL10002): 2
sensitivity class NSCLC NCI-H23(I) CL1001 ([1]; cell line NSCLC NCI-H23(I), CL1001): 2
sensitivity class NSCLC NCI-H332M CL1017 ([1]; cell line NSCLC NCI-H332M, CL1017): 2
sensitivity class NSCLC NCI-H460 CL1021 ([1]; cell line NSCLC NCI-H460, CL1021): 3
sensitivity class NSCLC NCI-H522 CL1003 ([1]; cell line NSCLC NCI-H522, CL1003): 2
sensitivity class Ovarian IGROV1 CL6010 ([1]; cell line Ovarian IGROV1, CL6010): 2
sensitivity class Ovarian OVCAR-3 CL6001 ([1]; cell line Ovarian OVCAR-3, CL6001): 2
sensitivity class Ovarian OVCAR-4 CL6002 ([1]; cell line Ovarian OVCAR-4, CL6002): 2
sensitivity class Ovarian OVCAR-5 CL6003 ([1]; cell line Ovarian OVCAR-5, CL6003): 1
sensitivity class Ovarian OVCAR-8 CL6005 ([1]; cell line Ovarian OVCAR-8, CL6005): 2
sensitivity class Ovarian SK-OV-3 CL6011 ([1]; cell line Ovarian SK-OV-3, CL6011): 1
sensitivity class Prostate DU-145 CL11003 ([1]; cell line Prostate DU-145, CL11003): 2
sensitivity class Prostate PC-3(I) CL11001 ([1]; cell line Prostate PC-3(I), CL11001): 2
sensitivity class Renal 786-O CL9018 ([1]; cell line Renal 786-O, CL9018): 2
sensitivity class Renal A498 CL9013 ([1]; cell line Renal A498, CL9013): 2
sensitivity class Renal ACHN CL9023 ([1]; cell line Renal ACHN, CL9023): 2
sensitivity class Renal CAKI-1 CL9015 ([1]; cell line Renal CAKI-1, CL9015): 3
sensitivity class Renal RXF-393 CL9016 ([1]; cell line Renal RXF-393, CL9016): 2
sensitivity class Renal SN12C CL9008 ([1]; cell line Renal SN12C, CL9008): 2
sensitivity class Renal TK10 CL9024 ([1]; cell line Renal TK10, CL9024): 1
sensitivity class Renal UO-31 CL9004 ([1]; cell line Renal UO-31, CL9004): 2
-Log (GI50) ([2]; Breast BT-549 (CL5013)): 4.0
-Log (GI50) ([2]; Breast HS-578T CL5006): 3.7
-Log (GI50) ([2]; Breast MCF7(I) (CL5001)): 5.7
-Log (GI50) ([2]; Breast MCF7/ADRr (CL5002)): 4.4
-Log (GI50) ([2]; Breast MDA-MB-231 CL5005): 3.4
-Log (GI50) ([2]; Breast MDA-MB-435 (CL5011)): 4.9
-Log (GI50) ([2]; Breast MDA-N CL5012): 5.0
-Log (GI50) ([2]; Breast T-47D (CL5014)): 4.2
-Log (GI50) ([2]; CNS SF-268 CL12014): 4.3
-Log (GI50) ([2]; CNS SF-295 CL12015): 4.3
-Log (GI50) ([2]; CNS SF-539 CL12016): 6.1
-Log (GI50) ([2]; CNS SNB-19 (CL12002)): 3.9
-Log (GI50) ([2]; CNS SNB-75(I) CL12005): 3.8
-Log (GI50) ([2]; CNS U251(I) CL12009): 4.3
-Log (GI50) ([2]; Colon COLO-250 CL4010): 5.2
-Log (GI50) ([2]; Colon HCC-2998 (CL4002)): 5.9
-Log (GI50) ([2]; Colon HCT-15 CL4015): 5.2
-Log (GI50) ([2]; Colon HCT-116 (CL4003)): 5.4
-Log (GI50) ([2]; Colon HT29(I) CL4001): 5.2
-Log (GI50) ([2]; Colon KM12 (CL4017)): 4.9
-Log (GI50) ([2]; Colon SW-620 (CL4009)): 4.6
-Log (GI50) ([2]; Leukemia CCRF-CEM(I) (CL7003)): 4.5
-Log (GI50) ([2]; Leukemia HL-60(I) (CL7008)): 4.9
-Log (GI50) ([2]; Leukemia K562(I) CL7005): 4.8
-Log (GI50) ([2]; Leukemia MOLT-4 (CL7006)): 4.9
-Log (GI50) ([2]; Leukemia RPMI-8226(I) (CL7010)): 5.3
-Log (GI50) ([2]; Leukemia SR CL7019): 5.2
-Log (GI50) ([2]; Melanoma LOX IMVI CL10001): 5.2
-Log (GI50) ([2]; Melanoma M14 (CL10014)): 4.3
-Log (GI50) ([2]; Melanoma MALME-3M CL10002): 4.6
-Log (GI50) ([2]; NCSLC NCI-H522 CL1003): 4.4
-Log (GI50) ([2]; NSCLC NCI-H23(I) CL1001): 5.0
-Log (GI50) ([2]; NSCLC NCI-H332M CL1017): 4.4
-Log (GI50) ([2]; NSCLC NCI-H460 CL1021): 5.9
-Log (GI50) ([2]; Ovarian IGROV1 CL6010): 4.8
-Log (GI50) ([2]; Ovarian OVCAR-3 CL6001): 4.4
-Log (GI50) ([2]; Ovarian OVCAR-4 CL6002): 4.1
-Log (GI50) ([2]; Ovarian OVCAR-5 CL6003): 3.8
-Log (GI50) ([2]; Ovarian OVCAR-8 CL6005): 4.8
-Log (GI50) ([2]; Ovarian SK-OV-3 CL6011): 3.8
-Log (GI50) ([2]; Prostate DU-145 CL11003): 5.1
-Log (GI50) ([2]; Prostate PC-3(I) CL11001): 4.3
-Log (GI50) ([2]; Renal 786-O CL9018): 4.9
-Log (GI50) ([2]; Renal A498 CL9013): 5.0
-Log (GI50) ([2]; Renal ACHN CL9023): 5.0
-Log (GI50) ([2]; Renal CAKI-1 CL9015): 5.3
-Log (GI50) ([2]; Renal RXF-393 CL9016): 4.2
-Log (GI50) ([2]; Renal SN12C CL9008): 4.5
-Log (GI50) ([2]; Renal TK10 CL9024): 3.6
-Log (GI50) ([2]; Renal UO-31 CL9004): 5.2
